≈ marks a conversion by molar mass, not a printed value. Where “and” joins values, the source holds several entries; their conditions need not be identical. Identical values can stand only once.
Experiments:
[1] = system: Pseudomonas aeruginosa BAA 47; assay: Spectrum: MIC99 on solid medium, agar serial dilution; assay type: cell-based; design: unit not given here; conditions: minimum concentration required to reduce CFUs by 99%, two independent runs
[2] = system: Staphylococcus aureus RN4220; assay: as above; assay type: cell-based; design: unit not given here; conditions: minimum concentration required to reduce CFUs by 99%, values of two independent runs
M. tuberculosis H37Rv = assay: Minimum inhibitory concentration (IC90) against fluorescent M. tuberculosis in liquid culture; conditions: for MIC: MTB IC90 assay, Figure 1 primary hits and reference drugs in this assay; for IC90: read-out: MTB IC90
[3] = system: Saccharomyces cerevisiae Y187; assay: Spectrum: MIC99 on solid medium, agar serial dilution; assay type: cell-based; design: unit not given here; conditions: minimum concentration required to reduce CFUs by 99%, values of two independent runs
[4] = system: Mycobacterium smegmatis mc^2155; assay: as above; assay type: cell-based; design: unit not given here; conditions: minimum concentration required to reduce CFUs by 99%, two independent runs
K. pneumoniae = assay: as above; assay type: cell-based; design: unit not given here; conditions: minimum concentration required to reduce CFUs by 99%, two independent runs
Protocol: Minimum inhibitory concentration to inhibit growth of 99% (MIC99) on solid medium was determined using the agar serial dilution method. Late log phase cultures were plated at ~10^5 colony-forming units (CFU)/mL onto solid medium containing 2-fold serial dilutions of compounds. The MIC99 is defined as the lowest concentration with ≤1% growth.

HepG2 human liver cells = assay: Cytotoxicity against HepG2 cells (CellTiter-Glo); assay type: cell-based; conditions: concentration required to inhibit growth of HepG2 cells by 50%, 72 h exposure
Protocol: Cytotoxicity was measured after 72 h of compound exposure at 37°C and 5% CO2 using CellTiter-Glo (Promega).

Escherichia coli DH5α = assay: Spectrum: MIC99 on solid medium, agar serial dilution; assay type: cell-based; design: unit not given here; conditions: minimum concentration required to reduce CFUs by 99%, two independent runs
[5] = system: Bacillus subtilis Marburg; assay: as above; assay type: cell-based; design: unit not given here; conditions: minimum concentration required to reduce CFUs by 99%, values of two independent runs
[6] = concentration required to inhibit M. tuberculosis growth by 90%, aerobic culture, 5 days, 7H9-OADC-Tw

O=c1[nH]c(-c2ccccn2)nc(C(F)(F)F)c1Cc1ccc(F)cc1 [Compound 5, 5-(4-Fluorobenzyl)-2-(Pyridin-2-yl)-6-(Trifluoromethyl)Pyrimidin-4(3H)-One]
MIC99 P. aeruginosa [1]: >100 | MIC99 S. aureus [2]: 1.6, 1.6 | MIC (M. tuberculosis H37Rv): 1.7 ± 0.41 µM (≈ 0.594 µg/mL) | IC90 (M. tuberculosis H37Rv; [6]): 1.7 ± 0.41 µM | MIC99 S. cerevisiae [3]: 3.1, 3.1 | MIC99 M. smegmatis [4]: >100 | MIC99 K. pneumoniae (K. pneumoniae): >100 | IC50 (HepG2 human liver cells; Homo sapiens, HepG2, 72 h): 3.2 ± 1.5 µM | melting point: 183 to 185 °C | MIC99 E. coli (Escherichia coli DH5α): >100 | MIC99 B. subtilis [5]: 12.5 and 6.3

Cc1c(C(F)(F)F)nc(-c2ccccn2)[nH]c1=O [Compound 10, 5-Methyl-2-(Pyridin-2-yl)-6-(Trifluoromethyl)Pyrimidin-4(3H)-One]
MIC99 P. aeruginosa [1]: >100 | MIC99 S. aureus [2]: 12.5, 12.5 | MIC (M. tuberculosis H37Rv): 2.9 ± 0.47 µM (≈ 0.74 µg/mL) | IC90 (M. tuberculosis H37Rv; [6]): 2.9 µM | MIC99 S. cerevisiae [3]: 6.3 and 12.5 | MIC99 M. smegmatis [4]: 25 | MIC99 K. pneumoniae (K. pneumoniae): >100 | IC50 (HepG2 human liver cells; Homo sapiens, HepG2, 72 h): 7.3 µM | IC50 (HepG2 human liver cells): 5.4 ± 3.1 µM | MIC99 E. coli (Escherichia coli DH5α): >100 | MIC99 B. subtilis [5]: 12.5, 12.5

Cc1c(C(F)(F)F)nc(-c2ncccc2O)[nH]c1=O [Compound 33, 2-(3-Hydroxypyridin-2-yl)-5-Methyl-6-(Trifluoromethyl)Pyrimidin-4(3H)-One]
MIC99 P. aeruginosa [1]: >100 | MIC99 S. aureus [2]: 3.1, 3.1 | IC90 (M. tuberculosis H37Rv; [6]): 2.5 ± 1.1 µM | MIC99 S. cerevisiae [3]: 3.1, 3.1 | MIC99 M. smegmatis [4]: 25 | MIC99 K. pneumoniae (K. pneumoniae): >100 | IC50 (HepG2 human liver cells; Homo sapiens, HepG2, 72 h): 3.2 ± 1.6 µM | melting point: 176 to 178 °C | MIC99 E. coli (Escherichia coli DH5α): >100

Cc1c(C(F)(F)F)nc(-c2ccccc2C(F)(F)F)[nH]c1=O [Compound 42, 5-Methyl-6-(Trifluoromethyl)-2-(2-(Trifluoromethyl)Phenyl)pyrimidin-4(3H)-One]
IC90 (M. tuberculosis H37Rv; [6]): > 20 µM | IC50 (HepG2 human liver cells; Homo sapiens, HepG2, 72 h): > 100 µM | melting point: 168 to 170 °C

Cc1cccc(C)c1-c1nc(C(F)(F)F)c(C)c(=O)[nH]1 [Compound 43, 2-(2,6-Dimethylphenyl)-5-Methyl-6-(Trifluoromethyl)Pyrimidin-4(3H)-One]
MTB IC90 (M. tuberculosis H37Rv; [6]): no antibacterial activity | IC90 (M. tuberculosis H37Rv; [6]): > 20 µM | IC50 (HepG2 human liver cells; Homo sapiens, HepG2, 72 h): > 100 µM | HepG2 IC50 (HepG2 human liver cells): no cytotoxicity | melting point: 174 to 175 °C

Cc1c(C(F)(F)F)nc(-c2ccccc2OC(F)(F)F)[nH]c1=O [Compound 44, 5-Methyl-2-(2-(Trifluoromethoxy)Phenyl)-6-(Trifluoromethyl)Pyrimidin-4(3H)-One]
IC90 (M. tuberculosis H37Rv; [6]): > 20 µM | IC50 (HepG2 human liver cells; Homo sapiens, HepG2, 72 h): > 100 µM | melting point: 167 to 168 °C

Cc1c(C(F)(F)F)nc(-c2ccccc2O)[nH]c1=O [Compound 46, 2-(2-Hydroxyphenyl)-5-Methyl-6-(Trifluoromethyl)Pyrimidin-4(3H)-One]
IC90 (M. tuberculosis H37Rv; [6]): > 20 µM | IC50 (HepG2 human liver cells; Homo sapiens, HepG2, 72 h): 44 ± 7.8 µM | melting point: 270 to 271 °C

Cc1c(Cc2ccccc2)nc(-c2ccccn2)[nH]c1=O [Compound 47, 6-Benzyl-5-Methyl-2-(Pyridin-2-yl)Pyrimidin-4(3H)-One]
IC90 (M. tuberculosis H37Rv; [6]): 5.7 ± 0.14 µM | IC50 (HepG2 human liver cells; Homo sapiens, HepG2, 72 h): 9.8 ± 5.7 µM | melting point: 120 to 121 °C

Cc1c(-c2ccccc2)nc(-c2ccccn2)[nH]c1=O [Compound 48, 5-Methyl-6-Phenyl-2-(Pyridin-2-yl)Pyrimidin-4(3H)-One]
IC90 (M. tuberculosis H37Rv; [6]): 9.4 ± 0.67 µM | IC50 (HepG2 human liver cells; Homo sapiens, HepG2, 72 h): 9.7 ± 5.5 µM | melting point: 140 to 141 °C

Cc1cnc(-c2ccccn2)[nH]c1=O [Compound 50, 5-Methyl-2-(Pyridin-2-yl)Pyrimidin-4(3H)-One]
IC90 (M. tuberculosis H37Rv; [6]): > 20 µM | IC50 (HepG2 human liver cells; Homo sapiens, HepG2, 72 h): 50 ± 13 µM | melting point: 148 to 149 °C

O=c1[nH]c(-c2ccccn2)nc(C(F)(F)F)c1Cc1ccccc1 [Compound 52, 5-Benzyl-2-(Pyridin-2-yl)-6-(Trifluoromethyl)Pyrimidin-4(3H)-One]
IC90 (M. tuberculosis H37Rv; [6]): 2.8 ± 0.78 µM | IC50 (HepG2 human liver cells; Homo sapiens, HepG2, 72 h): 7.3 ± 4.2 µM | melting point: 173 to 174 °C

O=c1[nH]c(-c2ccccn2)nc(C(F)(F)F)c1-c1ccc(F)cc1 [Compound 53, 5-(4-Fluorophenyl)-2-(Pyridin-2-yl)-6-(Trifluoromethyl)Pyrimidin-4(3H)-One]
MIC99 P. aeruginosa [1]: >100 | MIC99 S. aureus [2]: 3.1, 3.1 | IC90 (M. tuberculosis H37Rv; [6]): 3.8 ± 1.6 µM | MIC99 M. smegmatis [4]: >100 | MIC99 K. pneumoniae (K. pneumoniae): >100 | IC50 (HepG2 human liver cells; Homo sapiens, HepG2, 72 h): 11 ± 6.9 µM | melting point: 217 to 220 °C | MIC99 E. coli (Escherichia coli DH5α): >100 | MIC99 B. subtilis [5]: 6.3, 6.3

O=c1[nH]c(-c2ccccn2)nc(C(F)(F)F)c1-c1ccccc1 [Compound 54, 5-Phenyl-2-(Pyridin-2-yl)-6-(Trifluoromethyl)Pyrimidin-4(3H)-One]
IC90 (M. tuberculosis H37Rv; [6]): 4.5 ± 0.14 µM | IC50 (HepG2 human liver cells; Homo sapiens, HepG2, 72 h): 11 µM | IC50 (HepG2 human liver cells): 10 ± 6.4 µM | melting point: 258 to 259 °C

CCc1c(C(F)(F)F)nc(-c2ccccn2)[nH]c1=O [Compound 55, 5-Ethyl-2-(Pyridin-2-yl)-6-(Trifluoromethyl)Pyrimidin-4(3H)-One]
MIC99 P. aeruginosa [1]: >100 | MIC99 S. aureus [2]: 6.3 and 5.0 | IC90 (M. tuberculosis H37Rv; [6]): 3.7 ± 0.26 µM | MIC99 S. cerevisiae [3]: 3.1 and 5.0 | MIC99 M. smegmatis [4]: 100 | MIC99 K. pneumoniae (K. pneumoniae): >100 | IC50 (HepG2 human liver cells; Homo sapiens, HepG2, 72 h): 6.1 ± 1.3 µM | melting point: 122 to 124 °C | MIC99 E. coli (Escherichia coli DH5α): >100 | MIC99 B. subtilis [5]: 6.3 and 5.0

O=c1[nH]c(-c2ccccn2)nc(C(F)(F)F)c1C1CCCCC1 [Compound 58, 5-Cyclohexyl-2-(Pyridin-2-yl)-6-(Trifluoromethyl)Pyrimidin-4(3H)-One]
IC90 (M. tuberculosis H37Rv; [6]): 4.1 ± 0.28 µM | IC50 (HepG2 human liver cells; Homo sapiens, HepG2, 72 h): 2.9 ± 0.28 µM | melting point: 220 to 221 °C

From publication PMC8117417, “Novel Trifluoromethyl Pyrimidinone Compounds With Activity Against Mycobacterium tuberculosis” (Frontiers in Chemistry, 2021)
